Test results reported in US20260007678A1, “COMBINATION OF ALLOSTERIC AND ORTHOSTERIC EGFR INHIBITORS FOR THE TREATMENT OF CANCER” (Hoffmann-La Roche Inc., priority 2022, published 2026).
One block for each compound: values may come before it.

What was measured:
[1] = In vitro metabolic stability, intrinsic clearance in hepatocytes; type: in vitro ADME; conditions: primary pooled cryopreserved hepatocytes in suspension
Procedure: The in vitro metabolic stability was assessed in human and […] short-term hepatocytes suspensions. Primary pooled cryopreserved hepatocytes obtained from BioIVT (Westbury, NY, USA) were thawed and suspended in William's E medium supplemented with 10% fetal bovine serum. The suspended hepatocytes were pre-incubated at 37° C. (5% CO2) and reactions were initiated by adding the compound. Final assay conditions were 1 μM compound (final assay solvent concentration 0.01% DMSO), 1×10^6 hepatocytes/mL incubate. The mixtures were then incubated up to 2 hours at 37° C.′ (5% CO2). The reactions were stopped by placing samples on dry ice before storage at −80° C. until analysis by LC-MS/MS. The natural logarithm of the percentage initial drug concentration in the incubation samples was plotted against time and a linear regression analysis was applied using GraphPad Prism version 7.04 for Windows (GraphPad Software, La Jolla, CA) to define the slope. The in vitro hepatocyte intrinsic hepatocyte clearance rate (CLint) was calculated from the slope of the linear regression,-slope, with V representing the volume of the incubation in μL and N as the number of hepatocytes per incubation as detailed in Equation X: […]

[2] = system: Ba/F3 EGFR^L858R/C797S allograft; test: In vivo efficacy, Ba/F3 EGFR^L858R/C797S allograft; design: species or system mice; conditions: Example 6 at 10 mpk, Example 3 at 30 mpk, BID po
EGFR^L858R = molecular target: T1, EGFR^L858R (Homo sapiens, UniProt P00533, L858R); test: HTRF cellular assay in human cancer cells H3255; type: cell-based; conditions: read-out: IC50 H3255 EGFR LR
T1 construct: expressing WT EGFR, EGFR^L858R or EGFR^L858R/T790M; host or cells: NCI-H3255
T1 sequence (P00533 25-1210 L858R): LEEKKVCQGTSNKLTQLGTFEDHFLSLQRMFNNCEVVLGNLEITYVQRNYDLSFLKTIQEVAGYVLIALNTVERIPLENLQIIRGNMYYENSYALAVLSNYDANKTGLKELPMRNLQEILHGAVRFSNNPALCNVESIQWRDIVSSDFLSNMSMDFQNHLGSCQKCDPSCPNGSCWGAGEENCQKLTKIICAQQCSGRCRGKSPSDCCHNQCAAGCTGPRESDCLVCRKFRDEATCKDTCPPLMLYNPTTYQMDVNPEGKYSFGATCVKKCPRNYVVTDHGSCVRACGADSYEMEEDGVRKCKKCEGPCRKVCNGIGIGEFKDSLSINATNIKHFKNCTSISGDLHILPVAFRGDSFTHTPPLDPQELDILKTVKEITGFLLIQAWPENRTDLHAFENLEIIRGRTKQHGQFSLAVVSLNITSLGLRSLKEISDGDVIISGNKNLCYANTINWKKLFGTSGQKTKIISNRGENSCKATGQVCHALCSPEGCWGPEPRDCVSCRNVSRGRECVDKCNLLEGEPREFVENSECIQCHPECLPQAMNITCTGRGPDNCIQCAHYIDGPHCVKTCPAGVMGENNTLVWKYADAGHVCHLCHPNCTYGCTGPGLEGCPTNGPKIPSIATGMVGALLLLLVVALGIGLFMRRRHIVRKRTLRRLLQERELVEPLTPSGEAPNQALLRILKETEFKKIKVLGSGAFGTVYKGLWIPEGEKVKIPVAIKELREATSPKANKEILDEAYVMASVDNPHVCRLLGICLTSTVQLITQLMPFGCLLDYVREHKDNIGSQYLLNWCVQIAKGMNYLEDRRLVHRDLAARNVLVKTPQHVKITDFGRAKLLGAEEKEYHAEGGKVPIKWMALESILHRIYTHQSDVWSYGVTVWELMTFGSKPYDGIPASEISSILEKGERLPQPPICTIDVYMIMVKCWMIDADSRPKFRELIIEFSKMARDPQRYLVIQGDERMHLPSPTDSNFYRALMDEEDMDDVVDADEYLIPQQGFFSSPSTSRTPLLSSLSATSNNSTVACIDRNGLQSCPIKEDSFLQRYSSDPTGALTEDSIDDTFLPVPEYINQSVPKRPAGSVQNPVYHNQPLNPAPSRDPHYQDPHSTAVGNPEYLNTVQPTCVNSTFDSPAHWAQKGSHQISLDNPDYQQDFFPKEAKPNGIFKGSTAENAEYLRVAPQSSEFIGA
Procedure: (§1) NCI-H3255 cells were obtained from the NCI (#CVCL_6831). Cells were maintained in a humidified incubator at 37° C. and 5% CO2. […] Verification of cell line identities and absence of cross-contaminations by other cell lines was performed through Short Tandem Repeats-PCR analysis (only human cell lines) and MALDI-TOF analysis. […] All cell lines were used for no more than 20 passages after thawing for all described experiments.
Control wells with medium only were also prepared. […] Plates were incubated at 37° C. for 4 hours. […] The cells were eventually lysed in HTRF lysis buffer provided by the kit (see below) and stored at −80° C. until further use. HTRF assay for pEGFR (CisBio #64EG1PEH) or pERK (CisBio #64AERPEH) was then performed according to the manufacturer's instructions.

[3] = system: NCI-H1975 NSCLC-derived tumors (EGFR^L858R/T790M xenograft); test: In vivo efficacy, NCI-H1975 xenograft; conditions: alone and in combination with osimertinib, mice
EGFR WT [4] = molecular target: T2, EGFR WT (Homo sapiens, UniProt P00533); test: HTRF cellular assay in human cancer cells H2073; type: cell-based; design: expressing WT EGFR; host or cells: NCI-H2073; conditions: EGF 25 ng/ml
T2 sequence (P00533 25-1210): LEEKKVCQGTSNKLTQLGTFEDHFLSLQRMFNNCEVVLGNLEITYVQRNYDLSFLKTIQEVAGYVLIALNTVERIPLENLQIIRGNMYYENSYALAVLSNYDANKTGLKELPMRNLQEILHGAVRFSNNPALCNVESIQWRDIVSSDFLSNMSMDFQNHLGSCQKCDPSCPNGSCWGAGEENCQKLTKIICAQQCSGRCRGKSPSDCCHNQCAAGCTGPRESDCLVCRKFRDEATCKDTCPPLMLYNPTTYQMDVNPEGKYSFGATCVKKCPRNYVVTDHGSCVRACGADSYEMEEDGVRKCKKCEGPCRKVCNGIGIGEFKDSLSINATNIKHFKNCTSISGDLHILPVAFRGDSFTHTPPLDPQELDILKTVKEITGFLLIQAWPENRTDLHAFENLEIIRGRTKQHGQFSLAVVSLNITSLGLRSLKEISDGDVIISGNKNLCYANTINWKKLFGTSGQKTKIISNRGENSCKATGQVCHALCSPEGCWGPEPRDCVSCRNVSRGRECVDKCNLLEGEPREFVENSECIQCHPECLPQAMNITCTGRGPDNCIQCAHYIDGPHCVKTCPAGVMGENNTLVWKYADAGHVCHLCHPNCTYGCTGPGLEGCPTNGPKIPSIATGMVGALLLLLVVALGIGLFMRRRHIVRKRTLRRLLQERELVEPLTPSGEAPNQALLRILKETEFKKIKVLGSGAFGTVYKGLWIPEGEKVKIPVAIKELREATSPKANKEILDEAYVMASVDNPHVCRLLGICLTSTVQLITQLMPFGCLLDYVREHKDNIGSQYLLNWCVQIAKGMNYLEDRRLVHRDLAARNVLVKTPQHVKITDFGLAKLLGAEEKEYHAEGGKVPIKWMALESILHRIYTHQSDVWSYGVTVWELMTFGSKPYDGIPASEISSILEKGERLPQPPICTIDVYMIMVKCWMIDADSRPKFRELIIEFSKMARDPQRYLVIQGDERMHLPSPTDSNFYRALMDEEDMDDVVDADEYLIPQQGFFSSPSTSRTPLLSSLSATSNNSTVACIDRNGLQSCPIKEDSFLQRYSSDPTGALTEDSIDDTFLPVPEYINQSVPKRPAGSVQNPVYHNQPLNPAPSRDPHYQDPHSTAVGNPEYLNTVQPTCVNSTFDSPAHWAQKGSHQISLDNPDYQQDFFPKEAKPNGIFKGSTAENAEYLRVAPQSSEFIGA

EGFR^L858R/T790M = molecular target: T3, EGFR^L858R/T790M (Homo sapiens, UniProt P00533, L858R/T790M); test: HTRF cellular assay in human cancer cells H1975; type: cell-based; conditions: read-out: IC50 H1975 EGFR LRTM
T3 construct: expressing WT EGFR, EGFR^L858R or EGFR^L858R/T790M; host or cells: NCI-H1975
T3 sequence (P00533 25-1210 T790M/L858R): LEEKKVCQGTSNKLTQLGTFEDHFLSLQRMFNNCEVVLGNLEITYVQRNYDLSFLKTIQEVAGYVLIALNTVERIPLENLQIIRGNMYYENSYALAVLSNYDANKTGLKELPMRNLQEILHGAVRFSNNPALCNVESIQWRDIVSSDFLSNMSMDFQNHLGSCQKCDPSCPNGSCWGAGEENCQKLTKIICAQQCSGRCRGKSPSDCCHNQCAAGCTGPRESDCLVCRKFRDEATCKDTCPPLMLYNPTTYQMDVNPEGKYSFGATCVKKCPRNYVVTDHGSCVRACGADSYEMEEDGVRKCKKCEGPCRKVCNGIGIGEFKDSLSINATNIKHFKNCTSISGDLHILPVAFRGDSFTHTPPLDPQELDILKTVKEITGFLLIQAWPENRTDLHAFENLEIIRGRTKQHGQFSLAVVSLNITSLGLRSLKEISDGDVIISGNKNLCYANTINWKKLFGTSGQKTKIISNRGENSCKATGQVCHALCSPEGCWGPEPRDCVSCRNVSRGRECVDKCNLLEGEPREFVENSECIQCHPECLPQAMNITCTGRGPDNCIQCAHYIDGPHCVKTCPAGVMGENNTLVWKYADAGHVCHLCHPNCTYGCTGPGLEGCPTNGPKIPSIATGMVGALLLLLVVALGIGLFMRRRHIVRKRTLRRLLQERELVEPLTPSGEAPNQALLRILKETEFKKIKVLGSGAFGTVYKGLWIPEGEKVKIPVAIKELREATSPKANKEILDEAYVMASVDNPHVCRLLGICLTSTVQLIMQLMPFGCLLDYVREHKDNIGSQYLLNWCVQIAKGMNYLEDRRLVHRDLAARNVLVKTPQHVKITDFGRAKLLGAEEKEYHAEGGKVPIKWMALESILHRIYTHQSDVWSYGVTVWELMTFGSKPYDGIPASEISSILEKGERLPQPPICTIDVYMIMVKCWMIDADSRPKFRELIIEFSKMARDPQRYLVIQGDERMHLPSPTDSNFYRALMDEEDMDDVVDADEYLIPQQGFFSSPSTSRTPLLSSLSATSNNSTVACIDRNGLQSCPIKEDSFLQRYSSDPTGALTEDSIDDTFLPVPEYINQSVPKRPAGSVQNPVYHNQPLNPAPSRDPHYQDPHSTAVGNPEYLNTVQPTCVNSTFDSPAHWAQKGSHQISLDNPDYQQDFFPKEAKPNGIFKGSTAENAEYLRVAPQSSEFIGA

EGFR WT [5] = molecular target: T2, EGFR WT; test: HTRF cellular assay in human cancer cells A431; type: cell-based; design: expressing WT EGFR, EGFR^L858R or EGFR^L858R/T790M; #CRL-1555 (A431); host or cells: NCI-H2073; A431; conditions: EGF 25 ng/ml
[6] = molecular target: Ba/F3 cell lines stably expressing EGFR^L858R/T790M/C797S (Homo sapiens, UniProt P00533, T790M/C797S/L858R, cells depend on it); test: Cell viability assay (cell titer glo); type: cell-based
Ba/F3 cell lines stably expressing EGFR^L858R/T790M/C797S, sequence (P00533 whole entry T790M/C797S/L858R): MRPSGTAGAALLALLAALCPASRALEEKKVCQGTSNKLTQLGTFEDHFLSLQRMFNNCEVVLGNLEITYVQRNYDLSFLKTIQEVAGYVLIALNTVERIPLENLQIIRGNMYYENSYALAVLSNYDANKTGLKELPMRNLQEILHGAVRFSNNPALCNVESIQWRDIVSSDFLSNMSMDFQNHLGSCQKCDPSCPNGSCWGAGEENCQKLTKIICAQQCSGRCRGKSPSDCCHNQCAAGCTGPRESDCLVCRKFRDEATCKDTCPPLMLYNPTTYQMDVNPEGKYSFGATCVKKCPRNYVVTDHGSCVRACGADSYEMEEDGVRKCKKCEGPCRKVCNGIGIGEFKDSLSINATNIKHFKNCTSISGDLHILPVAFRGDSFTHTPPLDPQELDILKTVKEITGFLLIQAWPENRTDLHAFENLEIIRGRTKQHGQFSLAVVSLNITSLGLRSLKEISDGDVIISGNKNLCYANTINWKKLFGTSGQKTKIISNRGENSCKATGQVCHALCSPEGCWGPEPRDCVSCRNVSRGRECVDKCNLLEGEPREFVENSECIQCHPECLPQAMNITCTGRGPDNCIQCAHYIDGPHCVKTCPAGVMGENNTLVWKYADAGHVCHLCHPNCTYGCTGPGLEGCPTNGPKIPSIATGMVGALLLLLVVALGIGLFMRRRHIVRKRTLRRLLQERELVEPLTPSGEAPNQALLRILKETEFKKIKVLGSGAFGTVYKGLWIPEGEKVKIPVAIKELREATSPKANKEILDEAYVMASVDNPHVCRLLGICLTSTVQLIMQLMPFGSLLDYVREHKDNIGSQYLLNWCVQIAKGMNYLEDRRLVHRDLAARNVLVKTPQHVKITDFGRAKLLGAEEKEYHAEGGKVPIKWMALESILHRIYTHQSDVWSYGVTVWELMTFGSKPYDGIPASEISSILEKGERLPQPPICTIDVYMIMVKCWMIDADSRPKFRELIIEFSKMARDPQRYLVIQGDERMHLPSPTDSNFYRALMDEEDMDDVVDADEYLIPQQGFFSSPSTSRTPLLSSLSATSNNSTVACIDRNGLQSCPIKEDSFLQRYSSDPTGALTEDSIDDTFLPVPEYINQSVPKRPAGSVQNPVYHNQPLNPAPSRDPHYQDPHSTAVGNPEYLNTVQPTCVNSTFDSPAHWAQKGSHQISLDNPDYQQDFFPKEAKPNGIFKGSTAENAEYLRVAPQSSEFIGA
Procedure: as §1
Plates were incubated for 72 hours at 37° C. After treatment with compounds, 25 μl/well CellTiter-Glo 2.0 reagent (Promega #G9243) were added and plates were incubated for 10 min at RT and luminescence was quantified according to the manufacturer's protocol.

[7] = molecular target: Ba/F3 cell lines stably expressing EGFR^L858R/C797S (Homo sapiens, UniProt P00533, C797S/L858R, cells depend on it); test: Cell viability assay (cell titer glo); type: cell-based; conditions: 72 hours, first value of IC50/IC90
[8] = molecular target: T4, EGFR kinase domain (L858R) (Homo sapiens, UniProt P00533, L858R); test: Binding kinetics measured by stopped-flow fluorescence
T4 construct: osimertinib reacts faster with the EGFR kinase domain (L858R)
T4 sequence (P00533 712-979 L858R limits assumed): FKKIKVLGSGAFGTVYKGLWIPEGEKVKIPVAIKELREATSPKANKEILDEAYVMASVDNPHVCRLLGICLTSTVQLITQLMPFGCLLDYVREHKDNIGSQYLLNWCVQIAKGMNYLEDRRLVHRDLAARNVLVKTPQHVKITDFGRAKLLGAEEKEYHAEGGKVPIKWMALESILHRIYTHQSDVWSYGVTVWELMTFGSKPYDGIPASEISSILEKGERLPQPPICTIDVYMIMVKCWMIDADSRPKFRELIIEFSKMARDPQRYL
From the text: FIG. 3 (A) Binding kinetics measured by stopped-flow fluorescence. […].

hepatocyte CLint at 1 μM ([1]; human): 6.1 µL/min/1e6 cells | hepatocyte CLint at 1 μM ([1]; mouse): 21 µL/min/1e6 cells
SMILES: Cc1c(-c2ccc(N3CCOCC3)cc2)cc(C(F)F)c2cn(C(C(=O)Nc3nccs3)c3ncn4c3C[C@@H](F)C4)nc12 (stereo partly drawn) [Example 2, 2-[4-(Difluoromethyl)-7-methyl-6-(4-morpholinophenyl)indazol-2-yl]-2-[(6R)-6-fluoro-6,7-dihydro-5H-pyrrolo[1,2-c]imidazol-1-yl]-N-thiazol-2-yl-acetamide]

hepatocyte CLint at 1 μM ([1]; human): 5.9 µL/min/1e6 cells | hepatocyte CLint at 1 μM ([1]; mouse): 25 µL/min/1e6 cells
SMILES: Cc1c(-c2ccc(N3CCOCC3)cc2)cc(C(F)F)c2cn(C(C(=O)Nc3nccs3)c3ncn4c3CCC43CC3)nc12 (stereo not shown) [Example 3, 2-[4-(Difluoromethyl)-7-methyl-6-(4-morpholinophenyl)indazol-2-yl]-2-spiro[6,7-dihydropyrrol[1,2-c]imidazole-5,1′-cyclopropane]-1-yl-N-thiazol-2-yl-acetamide]
changes in body weight [2]: No significant changes in body weight

IC50 (EGFR^L858R): 16 nM | IC50 (EGFR WT [4]): 545 nM | IC50 (EGFR^L858R/T790M): 8 nM | IC50 (EGFR WT [5]): 577 nM | hepatocyte CLint at 1 μM ([1]; human): 1 µL/min/1e6 cells | hepatocyte CLint at 1 μM ([1]; mouse): 25 µL/min/1e6 cells
SMILES: Cc1c(C#Cc2ccc(CN3CCC(CO)CC3)cc2)cc(C(F)F)c2cn(C(C(=O)Nc3nccs3)c3ncn4c3CCC43CC3)nc12 (stereo not shown) [Example 6]
changes in body weight [2]: No significant changes in body weight | changes in body weight [3]: No significant changes in body weight

SMILES: O=C(Nc1nccs1)C(c1cc(F)ccc1O)N1Cc2ccc(-c3ccc(N4CCNCC4)cc3)cc2C1=O (stereo not shown) [JBJ-04-125-02, reference compound]
GI50 ([6]; 72 hours, first value of IC50/IC90): 30 nM | IC90 ([6]; read-out: Viability IC90 L858R/T790M/C797S, 72 hours, second value of IC50/IC90): 40 nM

SMILES: O=C(Nc1nccs1)C(c1ncn2c1CCC2)n1cc2c(F)cc(C#Cc3ccc(CN4CCC(O)CC4)cc3)cc2n1 (stereo not shown) [Example 4, 2-(6,7-Dihydro-5H-pyrrolo[1,2-c]imidazol-1-yl)-2-(4-fluoro-6-((4-((4-hydroxypiperidin-1-yl)methyl)phenyl)ethynyl)-2H-indazol-2-yl)-N-(thiazol-2-yl)acetamide]
GI50 [7]: 800 nM

IC50 (EGFR^L858R): 16 nM | increase of the residence time of osimertinib ([8]; global fitting of the kinetic data, osimertinib in presence of the allosteric inhibitor): around 120 fold | reaction of osimertinib with the EGFR kinase domain (L858R) in presence of the allosteric inhibitor ([8]; stopped-flow fluorescence): reacts faster | IC50 (EGFR WT [4]): ~2000 nM | IC50 (EGFR^L858R/T790M): 7 nM | hepatocyte CLint at 1 μM ([1]; human): 3.5 µL/min/1e6 cells | hepatocyte CLint at 1 μM ([1]; mouse): 16 µL/min/1e6 cells
SMILES: O=C(Nc1nccs1)C(c1ncn2c1C[C@@H](F)C2)n1cc2c(Cl)cc(-c3ccc(N4CCOCC4)cc3)c(Cl)c2n1 (stereo partly drawn) [Example 1, 2-[4,7-Dichloro-6-(4-morpholinophenyl)indazol-2-yl]-2-[(6R)-6-fluoro-6,7-dihydro-5H-pyrrolo[1,2-c]imidazol-1-yl]-N-thiazol-2-yl-acetamide]

hepatocyte CLint at 1 μM ([1]; human): 2.4 µL/min/1e6 cells | hepatocyte CLint at 1 μM ([1]; mouse): 36 µL/min/1e6 cells
SMILES: Cc1c(C#Cc2ccc(CN3CCC(CO)CC3)cc2)cc(C(F)F)c2cn(C(C(=O)Nc3nccs3)c3ncn4c3CCC4)nc12 (stereo not shown) [Example 5, 2-[4-(Difluoromethyl)-6-[2-[4-[[4-(hydroxymethyl)-1-piperidyl]methyl]phenyl]ethynyl]-7-methyl-indazol-2-yl]-2-(6,7-dihydro-5H-pyrrolo[1,2-c]imidazol-1-yl)-N-thiazol-2-yl-acetamide]
